In patent US20070078185A1, “Methods and compositions for controlling invertebrate pests” (priority 2005, published 2007):

Legend:
C. elegans [1] = experiment: In vivo response test: suppression of head oscillations in response to anterior touch, C. elegans on agar plates; settings: compound added to C. elegans grown on agar plates at 0.3 mg/ml
Protocol: Behavioral assays were performed with young adults at room temperature (22-24° C.) and the different genotypes were scored in parallel on independent days. Egg-laying assays were performed as described by Koelle and Horvitz (Cell 84:115 (1996)). Suppression of head oscillations was tested by striking animals that were outside the bacterial lawn with a fine eyelash behind the posterior bulb of the pharynx; head oscillations were scored during backing response. Nose touch, osmotic avoidance touch were tested as previously described (see, for example, Way et al., Genes Dev. 3:1823-1833 (1989); or Bargmann et al., Cold Spring Harb. Symp. Quant. Biol. 55:529-538 (1990)). […] Animals were tested twenty-four hours after they were picked as late L4. Laser-ablated animals were tested at least ten times. […] Laser ablated animals were tested at least 20 times. Reversal assays were performed as described by Tsalik et al., J. Neurobiol. 56:178-197 (2003). Synthesis of 4-hydrazinomethyl-benzene-1,3-diol (compound 1). [drawing 4]
Alternatively, putative tyrosine decarboxylase inhibitors can be screened in vivo by observing its effect on invertebrates. […] Furthermore, a tyrosine decarboxylase inhibitor is expected to cause egg laying defects in nematodes, fruit flies, and other invertebrates. […]

C. elegans [2] = settings: exogenous octopamine (Horvitz et al., Science 216:1012-1014 (1982)); cited from earlier work
C. elegans [3] = experiment: Egg-laying assay with exogenous amine on Petri plates; assay type: in vivo; settings: wild-type animals, Petri plates with bacteria containing 20 mM tyramine
Protocol: FIGS. 5A-SC are graphs showing that tdc-1 mutant nematodes are hyperactive in egg laying. […] Error bars indicate standard errors of the means. […] Single wild-type animals were transferred to Petri dishes with bacteria containing either no tyramine (n=13) or 20 mM tyramine (n=12). At the indicated times after transfer the number of eggs laid was counted. Error bars indicate standard errors ofthe means.
We therefore tested the effect of exogenous tyramine on egg laying behavior. Egg laying was inhibited on Petri plates containing 20 mM tyramine (FIG. 5C). […] Egg laying is regulated in part by the serotonergic HSN neurons, which induce muscle contraction of the vulva muscles (Trent et al., Genetics 104:619-647 (1983)).
Behavioral assays were performed with young adults at room temperature (22-24° C.) and the different genotypes were scored in parallel on independent days. Egg-laying assays were performed as described by Koelle and Horvitz (Cell 84:115 (1996)). Suppression of head oscillations was tested by striking animals that were outside the bacterial lawn with a fine eyelash behind the posterior bulb of the pharynx; head oscillations were scored during backing response. Nose touch, osmotic avoidance touch were tested as previously described (see, for example, Way et al., Genes Dev. 3:1823-1833 (1989); or Bargmann et al., Cold Spring Harb. Symp. Quant. Biol. 55:529-538 (1990)). […]

NC(CO)C(=O)NNCc1ccc(O)cc1O (racemic) [compound 2, N-(DL-seryl)-N′-(2,4,-dihydroxybenzyl) hydrazine]
suppression of head oscillations in response to anterior touch (C. elegans [1]): fail to suppress head oscillations

NCC(O)c1ccc(O)cc1 (stereo not drawn) [octopamine]
effect of exogenous octopamine on egg laying (C. elegans [2]): inhibitory effect

NCCc1ccc(O)cc1 [tyramine]
effect of exogenous tyramine on egg laying (C. elegans [3]): inhibited
